Structures are written as SMILES.

The subject of one series is Helicobacter pylori. As to the kind of experiment: Activity against Helicobacter pylori, agar method of Iwahi et al. (MIC 50). It counts as cell-based. Particulars: Helicobacter pylori, 96 h; Columbia agar (Oxoid), growth period of 4 days; approximate values; read-out: Appr. MIC 50. The text has this:
The compounds of the formula I were investigated with respect to their activity against Helicobacter pylori following the method described by Tomoyuki Iwahi et al. (Antimicrobial Agents and Chemotherapy, 1991, 490-496) using Columbia agar (Oxoid) and a growth period of 4 days.

As for `Cc1nc(C)c(Cl)c(NCc2nccc(SCc3ccncc3)c2C)n1` [Compound 46, (5-Chloro-2,6-dimethyl-pyrimidin-4-yl)-[3-methyl-4-(pyridin-4-ylmethylsulfanyl)-pyridin-2-ylmethyl]-amine], the melting point was in the range of 188 to 191.9 °C. Further, the MIC50 in the series with Helicobacter pylori was at most 0.1 µg/mL.
Regarding `Cc1nc(C)c(Cl)c(NCc2nccc(OCCOCCSCCO)c2C)n1` [Compound 35, 2-[2-(2-{2-[(5-Chloro-2,6-dimethyl-pyrimidin-4-ylamino)-methyl]-3-methyl-pyridin-4-yloxy}-ethoxy)-ethylsulfanyl]-ethanol], the melting point is 114 to 116 °C. Also, the MIC50 with Helicobacter pylori is at most 0.1 µg/mL.
For the compound `Cc1nc(C)c(Cl)c(NCc2nccc(SCCCSCc3ccccn3)c2C)n1` [Compound 48, (5-Chloro-2,6-dimethyl-pyrimidin-4-yl)-{3-methyl-4-[3-(pyridin-2-ylmethylsulfanyl)-propylsulfanyl]-pyridin-2-ylmethyl}-amine], the melting point was in the range of 100 to 101 °C. In addition, the MIC50 in the series on Helicobacter pylori is at most 0.1 µg/mL.
`Cc1nc(C)c(Cl)c(NCc2nccc(OCCCSCc3ccncc3)c2C)n1` [Compound 34, (5-Chloro-2,6-dimethyl-pyrimidin-4-yl)-{3-methyl-4-[3-(pyridin-4-ylmethylsulfanyl)-propoxy]-pyridin-2-ylmethyl}-amine]: the melting point lay within 111 to 113 °C. Besides, the MIC50 in the series on Helicobacter pylori was at most 0.1 µg/mL.
The compound `Cc1c(SCCCN2CCN(Cc3ccncc3)CC2)ccnc1CNc1ncncc1Cl` [Compound 45, (5-Chloro-pyrimidin-4-yl)-{3-methyl-4-[3-(4-pyridin-4-ylmethyl-piperazin-1-yl)-propylsulfanyl]-pyridin-2-ylmethyl}-amine] showed a melting point of 149 to 151 °C. For the same compound, the MIC50 in the series on Helicobacter pylori is at most 0.1 µg/mL.
The corresponding values for `Cc1nc(C)c(Cl)c(NCc2nccc(SCCCCSCc3ccncc3)c2C)n1` [Compound 20, (5-Chloro-2,6-dimethylpyrimidin-4-yl)-{3-methyl-4-[4-(pyridin-4-ylmethylsulfanyl)butylsulfanyl]pyridin-2-ylmethyl}amine] are 104 to 106 °C and at most 0.1 µg/mL.
On to `Cc1nc(C)c(Cl)c(NCc2nccc(SCCOCCOCCSCc3ccncc3)c2C)n1` [Compound 43, (5-Chloro-2,6-dimethyl-pyrimidin-4-yl)-[3-methyl-4-(2-{2-[2-(pyridin-4-ylmethylsulfanyl)-ethoxy]-ethoxy}-ethylsulfanyl)-pyridin-2-ylmethyl]-amine], for which the melting point fell in the range of 84 to 86 °C. Moreover, the MIC50 in the series with Helicobacter pylori was at most 0.1 µg/mL.
In the same order, the values of `Cc1nc(C)c(Cl)c(NCc2nccc(OCCOCCSCc3ccncc3)c2C)n1` [Compound 29, (5-Chloro-2,6-dimethyl-pyrimidin-4-yl)-(3-methyl-4-{2-[2-(pyridin-4-ylmethylsulfanyl)-ethoxy]-ethoxy}-pyridin-2-ylmethyl)-amine] are 103 to 105 °C and at most 0.1 µg/mL.
The corresponding values for `Cc1nc(C)c(Cl)c(NCc2nccc(SCc3ccco3)c2C)n1` [Compound 60, (5-Chloro-2,6-dimethyl-pyrimidin-4-yl)-[4-(furan-2-ylmethylsulfanyl)-3-methyl-pyridin-2-ylmethyl]-amine] are 159 to 160 °C and at most 0.1 µg/mL.
The corresponding values for `Cc1nc(C)c(Cl)c(NCc2nccc(SCCOCCOCC(F)(F)F)c2C)n1.Cl` [Compound 4, (5-Chloro-2,6-dimethylpyrimidin-4-yl)-(3-methyl-4-{2-[2-(2,2,2-trifluoroethoxy)ethoxy]ethylsulfanyl}pyridin-2-ylmethyl)amine hydrochloride] are 235 to 241 °C (dec.) and at most 0.1 µg/mL.
In turn, `Cc1c(OCCSCCn2c([N+](=O)[O-])cnc2C)ccnc1CNc1ncncc1Cl` [Compound 49, (5-Chloro-pyrimidin-4-yl)-(3-methyl-4-{2-[2-(2-methyl-5-nitro-imidazol-1-yl)-ethylsulfanyl]-ethoxy}-pyridin-2-ylmethyl)-amine] returned a melting point of 145 to 147 °C. Moreover, the MIC50 in the series with Helicobacter pylori is at most 0.1 µg/mL.
The compound `Cc1nc(C)c(Cl)c(NCc2nccc(OCCCCSCCn3c([N+](=O)[O-])cnc3C)c2C)n1` [Compound 16, (5-Chloro-2,6-dimethylpyrimidin-4-yl)-(3-methyl-4-{4-[2-(2-methyl-5-nitroimidazol-1-yl)-ethylsulfanyl]butoxy}pyridin-2-ylmethyl]amine] came in with a melting point of 114 to 117 °C. In addition, in the series on Helicobacter pylori, the MIC50 is at most 0.1 µg/mL.
In the same order, the values of `Cc1nc(C)c(Cl)c(NCc2nccc(SCCOCCSCc3ccncc3)c2C)n1` [Compound 42, (5-Chloro-2,6-dimethyl-pyrimidin-4-yl)-(3-methyl-4-{2-[2-(pyridin-4-ylmethylsulfanyl)-ethoxy]-ethylsulfanyl}-pyridin-2-ylmethyl)-amine] are 68 to 71 °C and at most 0.1 µg/mL.
In the same order, the values of `Cc1nc(C)c(Cl)c(NCc2nccc(SCCCSc3ncccn3)c2C)n1` [Compound 10, (5-Chloro-2,6-dimethylpyrimidin-4-yl)-{3-methyl-4-[3-(pyrimidin-2-ylsulfanyl)propylsulfanyl]-pyridin-2-ylmethyl}amine] are 158 to 159 °C and at most 0.1 µg/mL.
The corresponding values for `Cc1nc(C)c(Cl)c(NCc2nccc(SCCOCCSCc3ccccn3)c2C)n1` [Compound 53, (5-Chloro-2,6-dimethyl-pyrimidin-4-yl)-(3-methyl-4-{2-[2-(pyridin-2-ylmethylsulfanyl)-ethoxy]ethylsulfanyl}-pyridin-2-ylmethyl)-amine] are 70 to 72 °C and at most 0.1 µg/mL.
In turn, `Cc1nc(C)c(Cl)c(NCc2nccc(SCCCSCCn3c([N+](=O)[O-])cnc3C)c2C)n1` [Compound 27, (5-Chloro-2,6-dimethylpyrimidin-4-yl)-(3-methyl-4-{3-[2-(2-methyl-5-nitroimidazol-1-yl)-ethylsulfanyl]propylsulfanyl}pyridin-2-ylmethyl)amine] had a melting point of 145 to 147 °C. The MIC50 in the series with Helicobacter pylori is at most 0.1 µg/mL.
The corresponding values for `Cc1nc(C)c(Cl)c(NCc2nccc(SCCOCCn3c([N+](=O)[O-])cnc3C)c2C)n1` [Compound 57, (5-Chloro-2,6-dimethyl-pyrimidin-4-yl)-(3-methyl-4-{2-[2-(2-methyl-5-nitro-imidazol-1-yl)-ethoxy]-ethylsulfanyl}-pyridin-2-ylmethyl)-amine] are 160 to 163 °C and at most 0.1 µg/mL.
With `Cc1nc(C)c(Cl)c(NCc2nccc(SCCCSCC3CCCN(C)C3)c2C)n1` (stereo not shown) [Compound 22, (5-Chloro-2,6-dimethylpyrimidin-4-yl)-{3-methyl-4-[3-(1-methylpiperidin-3-ylmethylsulfanyl)propylsulfanyl]pyridin-2-ylmethyl}amine], the melting point was 92 to 94 °C. Besides, in the series on Helicobacter pylori, the MIC50 was at most 0.1 µg/mL.
In the same order, the values of `Cc1nc(C)c(Cl)c(NCc2nccc(SCCCN3CCN(Cc4ccncc4)CC3)c2C)n1.Cl` [Compound 23, (5-Chloro-2,6-dimethylpyrimidin-4-yl)-{3-methyl-4-[3-(4-pyridin-4-ylmethylpiperazin-1-yl)propylsulfanyl]pyridin-2-ylmethyl}amine hydrochloride] are 166 to 168 °C and at most 0.1 µg/mL.
In the case of `Cc1nc(C)c(Cl)c(NCc2nccc(SCCCCSCCO)c2C)n1` [Compound 37, 2-(4-{2-[(5-Chloro-2,6-dimethyl-pyrimidin-4-ylamino)-methyl]-3-methyl-pyridin-4-ylsulfanyl}-butylsulfanyl)-ethanol], the melting point is 142 to 143 °C. Also, the MIC50 in the series on Helicobacter pylori is at most 0.1 µg/mL.
`Cc1nc(C)c(Cl)c(NCc2nccc(SCCCSCC3CN(C)C(=O)O3)c2C)n1` (stereo not shown) [Compound 5, 5-(3-{2-[(5-Chloro-2,6-dimethylpyrimidin-4-ylamino)methyl]-3-methylpyridin-4-yl-sulfanyl}propylsulfanylmethyl)-3-methyloxazolidin-2-one] yielded a melting point of 121 °C. In addition, the MIC50 with Helicobacter pylori was at most 0.1 µg/mL.
The corresponding values for `Cc1nc(C)c(Cl)c(NCc2nccc(OCCCCSCCO)c2C)n1` [Compound 36, 2-(4-{2-[(5-Chloro-2,6-dimethyl-pyrimidin-4-ylamino)-methyl]-3-methyl-pyridin-4-yloxy}-butylsulfanyl)-ethanol] are 116 to 118 °C and at most 0.1 µg/mL.
The corresponding values for `Cc1nc(C)c(Cl)c(NCc2nccc(SCCCSCc3cccnc3)c2C)n1` [Compound 47, (5-Chloro-2,6-dimethyl-pyrimidin-4-yl)-{3-methyl-4-[3-(pyridin-3-ylmethylsulfanyl)-propylsulfanyl]-pyridin-2-ylmethyl}-amine] are 104 to 105 °C and at most 0.1 µg/mL.
Compound `Cc1nc(C)c(Cl)c(NCc2nccc(SCCCSCCO)c2C)n1` [Compound 31, 2-(3-{2-[(5-Chloro-2,6-dimethyl-pyrimidin-4-ylamino)-methyl]-3-methyl-pyridin-4-ylsulfanyl}-propylsulfanyl)-ethanol] returned a melting point of 134 to 137 °C. In addition, the MIC50 with Helicobacter pylori is at most 0.1 µg/mL.
Turning to `Cc1nc(C)c(Cl)c(NCc2nccc(OCCSCc3ccncc3)c2C)n1` [Compound 30, (5-Chloro-2,6-dimethyl-pyrimidin-4-yl)-{3-methyl-4-[2-(pyridin-4-ylmethylsulfanyl)-ethoxy]-pyridin-2-ylmethyl}-amine], the melting point was 140 to 142 °C. Further, the MIC50 in the series with Helicobacter pylori is at most 0.1 µg/mL.
Consider `Cc1c(OCCSCc2ccncc2)ccnc1CNc1ncncc1Cl` [Compound 54, (5-Chloro-pyrimidin-4-yl)-{3-methyl-4-[2-(pyridin-4-ylmethylsulfanyl)-ethoxy)-pyridine-2-ylmethyl}-amine], for which the melting point lay in the range of 119 to 121 °C. In addition, the MIC50 with Helicobacter pylori was at most 0.1 µg/mL.

As usually defined, the melting point is the temperature, or range, at which the solid turns liquid.

Values taken from patent US6395732B1, “Pyrimidin-aminomethyl-pyridine derivatives, their preparation and their use in the control of helicobacter bacteria” (BYK Gulden Lomberg Chemische Fabrik GmbH, priority 1998, dated 2002).
